Measured values published in patent publication US20220264927A1, “ORAL DOSE COMPOSITIONS OF TRIBUTYRIN FOR THE GENERATION OF BUTYRATE IN THE GUT” (NutriScience Innovations LLC, priority 2021, published 2022).
Like-named read-outs stand apart in the source and are kept apart here.

Key:
[1] = test system: gut microbiota starter cultures (human feces from 6 volunteers); test: ex vivo simulation of colon fermentation with human fecal starter cultures; butyrate generation by chromatography; assay type: cell-based; conditions: for Butyrate Generation: after 48 hours of fermentation
Description: In the first type of experiment, an ex-vivo model system is used. In this model system, an ex vivo simulation of the fermentation that occurs in the colon was used. Human feces from 6 volunteers were used as a gut microbiota starter cultures. The test materials were added to this system and butyrate generation was determined after 48 hours of fermentation, compared to controls for each set. Butyrate generation was measured using chromatography.
In this series of experiments the human equivalent dose (HED) was determined to be 1 gram/day of ingested prebiotic in-vivo corresponds to approximately 1 g/L in-vitro dose. Therefore a 10 mg/ml in-vitro dose is equivalent to 10 mg/day HED.

[2] = test system: mucosal damage in experimental colitis; conditions: DSS colitis, 5 g/kg diet, cited from earlier work
[3] = after ingestion, cited from earlier work
[4] = cited from earlier work
[5] = test system: intestinal barrier and liver; conditions: ethanol-exposed mice, diet supplemented 5 mM, 10 days; cited from earlier work
Caenorhabditis elegans = assay type: in vivo
Description: In the second type of experiment, an animal model system was used to study changes in the gut microbiome behavior. Caenorhabditis elegans (C. elegans), a nematode commonly used as an organism model, was used in the present study. Reduction of oxidative stress was determined in the C. elegans model. Butyrate has previously been shown in rodent and porcine studies to ameliorate oxidative stress in the intestine generated via hydrogen peroxide or Diquat dibromide exposure. Thus, an oxidative stress assay is a rapid indirect method of determining whether the tributyrin doses proposed in this study can produce beneficial butyrate in vivo.
Previous studies have shown that this concentration of Paraquat will kill adult C. elegans in liquid culture within 24 hours of exposure via the generation of superoxide anions that lead to oxidative damage of vital cellular components. The standard methods of growing the animals, treating with Paraquat, washing out the Paraquat, and observing survival at 12 hours post Paraquat treatment have been previously described. One group received only Paraquat as a positive control, while a second group received nothing as a negative control, and all others received the therapeutic treatments. […]
In the C. elegans series of studies, the human equivalent dose (HED) of tributyrin was determined in the following manner. A typical human stomach size of 250 ml was used as a baseline. […] Tributyrin is soluble in DMSO up to a maximum concentration of 100 mg/ml, which is equivalent to 330.73 mM. C. elegans can be exposed to a 1% solution of DMSO in aqueous standard nematode growth media without compromising its viability. […]

[6] = solubility of tributyrin in DMSO; assay type: physicochemical; conditions: organic solvent or mixture, equivalent of 100 mg/ml, read-out: maximum concentration soluble in DMSO
Description: In the C. elegans series of studies, the human equivalent dose (HED) of tributyrin was determined in the following manner. A typical human stomach size of 250 ml was used as a baseline. 100 mg per serving per day of tributyrin for a 60 Kg adult is equivalent to 400 μg/ml (˜1.32 mM). Tributyrin is soluble in DMSO up to a maximum concentration of 100 mg/ml, which is equivalent to 330.73 mM. C. elegans can be exposed to a 1% solution of DMSO in aqueous standard nematode growth media without compromising its viability. Doses between 10 mg HED [40 μg/ml (˜0.13 mM)], and 100 mg HED [400 μg/ml (˜1.32 mM)] were used.

[7] = Example 4, probiotic alone, test dose 5*10^7 CFU/mL, blank 2.78

Limosilactobacillus reuteri
Butyrate Generation [1, 7]: 2.72 mM

CCCC(=O)OCC(COC(=O)CCC)OC(=O)CCC [Tributyrin, propane-1,2,3-triyl tributyrate]
mucosal architecture ([2]; versus non-supplemented mice): improved mucosal architecture | intestinal permeability [2]: reduced intestinal permeability | oxidative stress (hydroperoxide) [2]: lower level of hydroperoxide | peak time of butyrate in plasma ([3]; in words): on the order of hours | maximum concentration soluble in DMSO [4]: ≤ 100 mg/mL | liver injury [5]: mitigated liver injury | tight-junction (TJ) protein staining in proximal colon and ileum [5]: maintained immunoreactive staining intensity of TJ proteins | oxidative stress (Caenorhabditis elegans; Example 3, tributyrin HED 10 and 100 mg/day, in words): significant reduction in oxidative stress | % Survival of Worms at 12 hours (Caenorhabditis elegans; test dose 40 ug/mL (HED 10 mg per day), no Paraquat): 97.24% | % Survival of Worms at 12 hours (Caenorhabditis elegans; test dose 40 ug/mL + Paraquat 250 nM (HED 10 mg per day), Paraquat alone 67.63): 68.86% | % Survival of Worms at 12 hours (Caenorhabditis elegans; test dose 400 ug/mL (HED 100 mg per day), no Paraquat): 99.23% | % Survival of Worms at 12 hours (Caenorhabditis elegans; test dose 400 ug/mL + Paraquat 250 nM (HED 100 mg per day), Paraquat alone 67.63): 73.63% | solubility [6]: 331 mM | Butyrate Generation ([1]; Example 1, test dose 50 mg/L (HED 50 mg per day), blank 2.86): 3.22 mM | Butyrate Generation ([1]; Example 1, test dose 100 mg/L (HED 100 mg per day), blank 2.86): 3.73 mM | butyrate generation compared with inulin at HED 4 g/day ([1]; Example 1, tributyrin HED 50 to 100 mg/day, in words): about the same amount of butyrate | butyrate generation compared with XOS at HED 1 g/day ([1]; Example 2, tributyrin 100 mg/day HED, in words): equivalent butyrate generation | Butyrate Generation ([1]; Examples 2 and 4, test dose 100 mg/L (HED 100 mg per day), blank 2.78): 3.51 mM

xylooligosaccharide [XOS, reference compound]
Butyrate Generation ([1]; Examples 2 and 4, test dose 1 g/L (HED 1 g per day), blank 2.78): 3.30 mM

Inulin [reference compound]
Butyrate Generation ([1]; Example 1, test dose 4 g/L (HED 4 g per day), blank 2.86): 3.62 mM

Lacticaseibacillus rhamnosus GG [LGG]
Butyrate Generation [1, 7]: 3.15 mM

CCCC(=O)[O-].[Na+] [sodium butyrate, Sodium butyrate, reference compound]
peak time of butyrate in plasma [3]: 15 to 45 min

C[n+]1ccc(-c2cc[n+](C)cc2)cc1 [Paraquat, reference compound]
% Survival of Worms at 12 hours (Caenorhabditis elegans; Paraquat 250 nM alone (positive control), negative control 98.69): 67.63%

partially hydrolyzed guar gum [PHGG, reference compound]
% Survival of Worms at 12 hours (Caenorhabditis elegans; test dose 20 mg/mL (HED 5 g per day), no Paraquat): 96.24% | % Survival of Worms at 12 hours (Caenorhabditis elegans; test dose 20 mg/mL + Paraquat 250 nM (HED 5 g per day), Paraquat alone 67.63): 49.39% | % Survival of Worms at 12 hours (Caenorhabditis elegans; test dose 40 mg/mL (HED 10 g per day), no Paraquat): 96.27% | % Survival of Worms at 12 hours (Caenorhabditis elegans; test dose 40 mg/mL + Paraquat 250 nM (HED 10 g per day), Paraquat alone 67.63): 62.99%
